Results on one molecule are retold here after patent US20080269202A1, “Novel 2,3-benzodiazepine derivatives and their use as antipsychotic agents” (Teva Pharmaceutical Industries Ltd., priority 2007, published 2008).

Data set [1] concerns DOPA accumulation in eminentia mediana. Kind of data set: DOPA accumulation in eminentia mediana after NSD-1015. In kind it is in vivo, Sprague-Dawley rats. Here is the method:
Acute administration of atypical antipsychotics results in enhanced accumulation of dihydroxyphenylalanine (DOPA) in the […] after the inhibition of DOPA decarboxylase. In contrast, DOPA accumulation is not altered by the typical antipsychotics (Andersson, G, Albinsson, A, Pettersson, G, Arzneimittelforschung. 1990, 40, 237; Gudelsky, G. A., Meltzer, H. Y. Neuropsychopharmacology, 1989, 2, 45). The effect of the compound of Example 121 on DOPA-accumulation was measured by analyzing the levels of DOPA in […]. […] (EM), were dissected out from the brains on ice-cold plates and kept at -70° C. until they were assayed for DOPA by HPL-EC. Statistical analysis was carried out using one-way ANOVA followed by Duncan test.

The test system of data set [2] is PCP-induced disruption of PPI. The data set can be described thus: PCP-induced disruption of pre-pulse inhibition (PPI).
Text: Male C57B1/6J mice from Jackson Laboratories (Bar Harbor, Me.) were used in this study. Mice were received at 6-weeks of age. Upon receipt, mice were assigned unique identification numbers (tail marked) and were group housed in OPTImice cages. All animals remained housed in groups of four during the remainder of the study. […] During the period of acclimation, mice were examined on a regular basis, handled, and weighed to assure adequate health and suitability. Mice were maintained on a 12/12 light/dark cycle with the light on at 6:00 a.m. The room temperature was maintained between 20 and 23° C. with a relative humidity maintained between 30% and 70%. Food and water were provided ad libitum for the duration of the study. In each test, animals were randomly assigned across treatment groups.
All compounds were injected i.p. at a dose volume of 10 ml/kg. […] Phenylcyclohexylpiperidine (PCP) (8 mg/kg) was dissolved in sterile water.
The acoustic startle measured an unconditioned reflex response to external auditory stimulation. […] Mice were placed in the PPI chambers (Med Associates) for a 5 min session of white noise (70 dB) habituation.
After the acclimation period the test session was automatically started. The session started with a habituation block of 6 presentations of the startle stimulus alone, followed by 10 PPI blocks of 6 different types of trials. Trial types are: null (no stimuli), startle (120 dB), startle plus prepulse (4, 8 and 12 dB over background noise i.e. 74, 78 or 82 dB) and prepulse alone (82 dB). Trial types were presented at random within each block.
Each trial started with a 50 ms null period during which baseline movements were recorded. There was a subsequent 20 ms period during which prepulse stimuli were presented and responses to the prepulse measured. After further 100 ms the startle stimuli were presented for 40 ms and responses recorded for 100 ms from startle onset. Responses were sampled every ms. The inter-trial interval was variable with an average of 15 s (range from 10 to 20 s). In startle alone trials the basic auditory startle was measured and in prepulse plus startle trials the amount of inhibition of the normal startle was determined and expressed as a percentage of the basic startle response (from startle alone trials), excluding the startle response of the first habituation block.
Data were analyzed by analysis of variance (ANOVA) followed by post-hoc comparisons with Fisher Tests when appropriate. An effect was considered significant if p<0.05. Data are represented as the mean and standard error to the mean.
A further data set deals with PCP-induced locomotion. The data set can be described thus: PCP induced locomotor activity test (open field). Format: in vivo, mice. The following applies: all doses (1, 3, 6, 10, 15 mg/kg) by gavage, PCP 5 mg/kg, vs vehicle. Here is the method:
The effects of compounds 121 and 183, administered orally, were also evaluated in the PCP induced locomotor activity test. Compound 121 was designated as “Compound A” and Compound 183 was designated as “Compound B” for purposes of this study. In general, the study aimed to test Compounds A and B for potential antipsychotic activity in PCP treated mice.
Compounds A & B were dissolved in 3% Tween: Compound A: 1, 3, 6, 10, and 15 mg/kg; Compound B: 3, 7, 14, 28, and 40 mg/kg; Compounds A+B were administered by gavage.
PCP (5 mg/kg) was dissolved in sterile injectable water.
The open field (“OF”) test assessed both anxiety and locomotor behavior. The open field chambers are Plexiglas square chambers (27.3×27.3×20.3 cm; Med Associates Inc., St Albans, Vt.) surrounded by infrared photobeams (16×16×16) to measure horizontal and vertical activity. The analysis was configured to divide the open field into a center and periphery zone. Distance traveled was measured from horizontal beam breaks as the mouse moved whereas rearing activity was measured from vertical beam breaks.
Mice were brought to the activity experimental room for at least 1 hr acclimation to the experimental room conditions prior to testing. […]
Data was analyzed to show baseline activity (activity during the 30 min prior to PCP injection) and PCP-induced activity (activity during the 60 min after PCP injection).

Take `CNC(=O)N1N=C(c2ccc(N)cc2)c2cc(OC)c(OC)cc2C[C@H]1C` [Example 121]: the “DOPA levels (pg/tissue block)” value was 484 ± 34 pg/tissue block in data set [1] (rat eminentia mediana, 10 mg/kg ip, mean ± SEM) and 652 ± 69 pg/tissue block in data set [1] (rat eminentia mediana, 20 mg/kg ip, mean ± SEM). In addition, the “DOPA levels (pmol/mg prot)” value in data set [1] (rat eminentia mediana, 40 mg/kg ip, mean ± SEM) is given as 94.0 ± 11.4 pmol/mg prot. Besides, the “effect on levels of DOPA in the EM of rats” value in data set [1] (result in words, vs saline) is reported as “significantly increased”. For the same molecule, the “sedation and lethargy in the mice” value in data set [2] (5 mg/kg i.p. (high dose)) was “caused sedation and lethargy”. For the same molecule, the “reversal of PCP-induced disruption of PPI” value in data set [2] (2.5 and 5 mg/kg i.p., PCP 8 mg/kg, C57B1/6J mice) is listed as “significantly reversed”. Further, in the data set on PCP-induced locomotion, the “effect on PCP induced locomotion” value was “significantly decreased”.
